Source: ChEMBL document CHEMBL4219094, “Synthesis and evaluation of substituted 4-arylimino-3-hydroxybutanoic acids as potential HIV-1 integrase inhibitors” (Bioorg Med Chem Lett, 2018)

Assays:
HEK293 = assay: Cytotoxicity against HEK293 cells at 100 uM after 48 hrs by resorufin dye-based fluorescence assay relative to control; assay type: cell-based; conditions: human, hek293, 48 h
[1] = biological target: Human immunodeficiency virus type 1 integrase (Human immunodeficiency virus 1, UniProt Q7ZJM1); assay: Inhibition of HIV-1 subtype C integrase in presence of biotinylated DNA by colorimetric analysis
[2] = Cytotoxicity against HEK293 cells after 48 hrs by resazurin dye-based fluorescence assay; assay type: cell-based; conditions: human

Human immunodeficiency virus type 1 integrase, sequence (Q7ZJM1 whole entry): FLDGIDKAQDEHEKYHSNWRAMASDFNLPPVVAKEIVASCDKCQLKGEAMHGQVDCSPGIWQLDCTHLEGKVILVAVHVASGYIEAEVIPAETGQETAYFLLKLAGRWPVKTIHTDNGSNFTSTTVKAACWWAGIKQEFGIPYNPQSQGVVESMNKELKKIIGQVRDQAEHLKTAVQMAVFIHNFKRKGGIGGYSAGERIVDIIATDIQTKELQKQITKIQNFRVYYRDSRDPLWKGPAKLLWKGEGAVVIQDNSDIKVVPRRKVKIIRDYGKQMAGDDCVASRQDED

Row | SMILES | IC50 [1] | Activity (HEK293) | CC50 at 48 h [2]
1 | CC[C@H]1CN2CCc3cc(OC)c(OC)cc3[C@@H]2C[C@@H]1C[C@H]1NCCc2cc(OC)c(OC)cc21 [EMETINE] |  |  | 0.071 µM
2 | O=C(O)CC(O)/C=N/c1cc(Cl)cc(Cl)c1O (configuration not stated) | > 100 µM |  | 101 µM
3 | O=C(O)CC(O)/C=N/c1cc(Cl)cc(Br)c1O (configuration not stated) | > 100 µM |  | 109 µM
4 | O=C(O)CC(O)/C=N/c1cc(Br)cc(Br)c1O (configuration not stated) | 26.4 µM |  | 104 µM

Further lines, with some results ahead:

Row | IC50 [1] | SMILES | Activity (HEK293) | CC50 at 48 h [2]
5 | 38.7 µM | O=C(O)CC(O)/C=N/c1ccc(O)c(O)c1 (configuration not stated) | Non-Toxic | 
6 | 53.2 µM | O=C(O)CC(O)/C=N/c1cccc(O)c1O (configuration not stated) | Non-Toxic | 
7 | > 100 µM | O=C(O)CC(O)/C=N/c1ccccc1O (configuration not stated) | Non-Toxic | 
8 | 65.1 µM | O=C(O)CC(O)/C=N/c1cc([N+](=O)[O-])ccc1O (configuration not stated) | Non-Toxic | 
9 | 3.52 µM | O=C(O)CC(O)/C=N/c1ccc(O)c(O)c1O (configuration not stated) | Non-Toxic | 
